Measurements from PubChem BioAssay AID248 (DTP/NCI, 2004).
Values joined by “and” are separate entries in the source; they are usually repeats but may differ in a detail not shown here. Equal entries are not always repeated. Inconclusive results and toxic doses are left out.

Tested on: L1210 leukemia ip in BDF1 mice, survival T/C
Test: NCI In Vivo Anticancer Drug Screen. Data for tumor model L1210 Leukemia (intraperitoneal) in B6D2F1 (BDF1) mice
Conditions: endpoint: mean survival time, higher = longer survival
In short: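 Ratio derived from survival: compound-dosed mice over vehicle-dosed mice, all bearing a transplantable tumor.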

[1] = dose: 50.0 mg/kg/injection, schedule: Q01DX009 (ip), vehicle: Klucel (hydroxypropylcellulose) (HPC)
[2] = dose: 100.0 mg/kg/injection, schedule: Q01DX009 (ip), vehicle: Klucel (hydroxypropylcellulose) (HPC)
[3] = dose: 100.0 mg/kg/injection, schedule: Q04DX003 (ip), vehicle: saline with Tween-80
[4] = dose: 200.0 mg/kg/injection, schedule: Q04DX003 (ip), vehicle: saline with Tween-80
[5] = dose: 200.0 mg/kg/injection, schedule: Q01DX009 (ip), vehicle: Klucel (hydroxypropylcellulose) (HPC)
[6] = dose: 100.0 mg/kg/injection, schedule: Q04DX003 (ip), vehicle: Klucel (hydroxypropylcellulose) (HPC)
[7] = dose: 200.0 mg/kg/injection, schedule: Q04DX003 (ip), vehicle: Klucel (hydroxypropylcellulose) (HPC)
[8] = dose: 400.0 mg/kg/injection, schedule: Q01DX009 (ip), vehicle: Klucel (hydroxypropylcellulose) (HPC)
[9] = dose: 400.0 mg/kg/injection, schedule: Q04DX003 (ip), vehicle: Klucel (hydroxypropylcellulose) (HPC)
[10] = dose: 100.0 mg/kg/injection, schedule: Q01DX001 (ip), vehicle: carboxymethylcellulose (CMC)
[11] = dose: 200.0 mg/kg/injection, schedule: Q01DX001 (ip), vehicle: carboxymethylcellulose (CMC)
[12] = dose: 400.0 mg/kg/injection, schedule: Q01DX001 (ip), vehicle: carboxymethylcellulose (CMC)
[13] = dose: 25.0 mg/kg/injection, schedule: Q04DX003 (ip), vehicle: saline

## Cc1nnc(NS(=O)(=O)c2ccc(N=Nc3c(N)[nH]c(=O)[nH]c3=O)cc2)s1
dose: 100.0 mg/kg/injection, schedule: Q01DX001 (ip), vehicle: saline
  T/C: 96 % of control
dose: 200.0 mg/kg/injection, schedule: Q01DX001 (ip), vehicle: saline
  T/C: 111 % of control
dose: 400.0 mg/kg/injection, schedule: Q01DX001 (ip), vehicle: saline
  T/C: 98 % of control

## O=C(Nc1ccc(Cl)cc1)Oc1c(Cl)cc(S(=O)(=O)F)cc1Cl
dose: 25.0 mg/kg/injection, schedule: Q04DX002 (ip), vehicle: Klucel (hydroxypropylcellulose) (HPC)
  T/C: 94 % of control
[1]
  T/C: 97 % of control
dose: 50.0 mg/kg/injection, schedule: Q04DX002 (ip), vehicle: Klucel (hydroxypropylcellulose) (HPC)
  T/C: 91 % of control
[2]
  T/C: 97 % of control
dose: 100.0 mg/kg/injection, schedule: Q04DX002 (ip), vehicle: Klucel (hydroxypropylcellulose) (HPC)
  T/C: 99 % of control and 91 % of control

## CC(C)C(=O)[O][Pb]([CH3])([CH3])[CH3]
dose: 12.5 mg/kg/injection, schedule: Q04DX002 (ip), vehicle: saline
  T/C: 90 % of control

## CCOC(=O)CN1C(=O)NC(C)(c2ccc(Cl)cc2)C1=O (configuration not stated)
[3]
  T/C: 106 % of control
[4]
  T/C: 98 % of control
dose: 400.0 mg/kg/injection, schedule: Q04DX003 (ip), vehicle: saline with Tween-80
  T/C: 96 % of control

## CC1(C)c2cc3ccc(Cl)cc3nc2-c2ccccc2C1(C)O (configuration not stated)
[2]
  T/C: 89 % of control
dose: 100.0 mg/kg/injection, schedule: Q04DX003 (ip), vehicle: acetone
  T/C: 98 % of control
[5]
  T/C: 89 % of control
dose: 200.0 mg/kg/injection, schedule: Q04DX003 (ip), vehicle: acetone
  T/C: 101 % of control
dose: 400.0 mg/kg/injection, schedule: Q04DX003 (ip), vehicle: acetone
  T/C: 91 % of control

## CC12C=CC(CC1)C2OC(=O)c1ccccc1C(=O)O (configuration not stated)
[2]
  T/C: 95 % of control
[6]
  T/C: 94 % of control
[5]
  T/C: 97 % of control
[7]
  T/C: 108 % of control
[8]
  T/C: 92 % of control
[9]
  T/C: 92 % of control

## Nc1cccc2ccc(S(=O)(=O)O)cc12
dose: 100.0 mg/kg/injection, schedule: Q01DX009 (ip), vehicle: saline
  T/C: 106 % of control
dose: 200.0 mg/kg/injection, schedule: Q01DX009 (ip), vehicle: saline
  T/C: 97 % of control
dose: 400.0 mg/kg/injection, schedule: Q01DX009 (ip), vehicle: saline
  T/C: 101 % of control

## N#Cc1cnn(CCO)c1N
[10]
  T/C: 103 % of control
dose: 100.0 mg/kg/injection, schedule: Q01DX009 (ip), vehicle: water
  T/C: 107 % of control
dose: 100.0 mg/kg/injection, schedule: Q04DX003 (ip), vehicle: water
  T/C: 115 % of control
[11]
  T/C: 97 % of control
dose: 200.0 mg/kg/injection, schedule: Q01DX009 (ip), vehicle: water
  T/C: 101 % of control
dose: 200.0 mg/kg/injection, schedule: Q04DX003 (ip), vehicle: water
  T/C: 110 % of control
[12]
  T/C: 100 % of control
dose: 400.0 mg/kg/injection, schedule: Q01DX009 (ip), vehicle: water
  T/C: 114 % of control
dose: 400.0 mg/kg/injection, schedule: Q04DX003 (ip), vehicle: water
  T/C: 104 % of control

## CC1CCC(C(O)(C(=O)O)C2CCCCC2)CC1 (configuration not stated)
dose: 75.0 mg/kg/injection, schedule: Q01DX001 (ip), vehicle: other
  T/C: 104 % of control
dose: 150.0 mg/kg/injection, schedule: Q01DX001 (ip), vehicle: other
  T/C: 101 % of control

## CC1(C(Cl)(Cl)Cl)C=CC(=NO)C=C1 (configuration not stated)
[3]
  T/C: 110 % of control
[4]
  T/C: 101 % of control

## O=C(COc1ccc(Cl)c(Cl)c1)NCc1ccc[n+](Cc2ccc(Cl)c(S(=O)(=O)F)c2)c1
[13]
  T/C: 114 % of control
dose: 50.0 mg/kg/injection, schedule: Q04DX003 (ip), vehicle: saline
  T/C: 118 % of control
dose: 100.0 mg/kg/injection, schedule: Q04DX003 (ip), vehicle: saline
  T/C: 100 % of control and 112 % of control

## CC(C)c1ccc(/C=C/C(=O)O)cc1
dose: 50.0 mg/kg/injection, schedule: Q01DX001 (ip), vehicle: carboxymethylcellulose (CMC)
  T/C: 108 % of control
[10]
  T/C: 97 % of control
[11]
  T/C: 92 % of control
[12]
  T/C: 101 % of control

## N#CC1(Cc2ccc(Br)cc2)c2cc(OC(=O)c3ccccc3)ccc2C=CN1C(=O)c1ccccc1 (configuration not stated)
[6]
  T/C: 96 % of control
[7]
  T/C: 99 % of control
[9]
  T/C: 99 % of control

## CC(=O)OC1=C(c2c(C)cc(C)c(Br)c2C)C(=O)C(OC(C)=O)=C(c2c(C)cc(C)c(Br)c2C)C1=O
[6]
  T/C: 104 % of control
[7]
  T/C: 100 % of control
[9]
  T/C: 98 % of control

## Cc1ccc(NC(=O)Oc2c(C)cccc2C)c([N+](=O)[O-])c1
[1]
  T/C: 93 % of control
[2]
  T/C: 87 % of control

## O=C(O)c1ccc(N=Cc2c(Cl)cccc2Cl)cc1
[2]
  T/C: 104 % of control
[5]
  T/C: 101 % of control
[8]
  T/C: 104 % of control

## CCNc1nc(Cl)nc(NCC)n1
dose: 100.0 mg/kg/injection, schedule: Q01DX009 (ip), vehicle: saline sonified
  T/C: 98 % of control
dose: 100.0 mg/kg/injection, schedule: Q01DX009 (ip), vehicle: saline with Tween-80
  T/C: 95 % of control
[6]
  T/C: 94 % of control and 103 % of control
dose: 200.0 mg/kg/injection, schedule: Q01DX009 (ip), vehicle: saline sonified
  T/C: 98 % of control
dose: 200.0 mg/kg/injection, schedule: Q01DX009 (ip), vehicle: saline with Tween-80
  T/C: 94 % of control
[7]
  T/C: 94 % of control and 103 % of control
dose: 400.0 mg/kg/injection, schedule: Q01DX009 (ip), vehicle: saline sonified
  T/C: 96 % of control
dose: 400.0 mg/kg/injection, schedule: Q01DX009 (ip), vehicle: saline with Tween-80
  T/C: 100 % of control
[9]
  T/C: 102 % of control and 103 % of control

## CNC(=N)c1ccc(NC(=N)c2ccc(NC(=O)Nc3cccc(NC(=O)Nc4ccc(C(=N)Nc5ccc(C(=N)NC)cc5)cc4)c3)cc2)cc1
dose: 0.31 mg/kg/injection, schedule: Q01DX015 (ip), vehicle: water
  T/C: 103 % of control
dose: 0.62 mg/kg/injection, schedule: Q01DX015 (ip), vehicle: water
  T/C: 115 % of control
dose: 1.0 mg/kg/injection, schedule: Q01DX Z (ip), vehicle: water
  T/C: 154 % of control
dose: 2.0 mg/kg/injection, schedule: Q01DX Z (ip), vehicle: water
  T/C: 158 % of control
dose: 3.5 mg/kg/injection, schedule: Q01DX Z (ip), vehicle: water
  T/C: 150 % of control
dose: 4.0 mg/kg/injection, schedule: Q01DX Z (ip), vehicle: water
  T/C: 150 % of control
dose: 5.0 mg/kg/injection, schedule: Q01DX015 (ip), vehicle: water
  T/C: 162 % of control
dose: 7.0 mg/kg/injection, schedule: Q01DX Z (ip), vehicle: water
  T/C: 172 % of control
dose: 7.5 mg/kg/injection, schedule: Q01DX015 (ip), vehicle: water
  T/C: 203 % of control
dose: 10.0 mg/kg/injection, schedule: Q01DX015 (ip), vehicle: water
  T/C: 241 % of control
dose: 10.0 mg/kg/injection, schedule: Q01DX Z (ip), vehicle: water
  T/C: 236 % of control
dose: 14.25 mg/kg/injection, schedule: Q01DX Z (ip), vehicle: water
  T/C: 193 % of control
dose: 15.0 mg/kg/injection, schedule: Q01DX015 (ip), vehicle: water
  T/C: 340 % of control
dose: 28.5 mg/kg/injection, schedule: Q01DX Z (ip), vehicle: water
  T/C: 92 % of control

## CCN(C)CCC(C=NCC(CCN(C)CC)(CCN(C)CC)c1cccc2ccccc12)(CCN(C)CC)c1cccc2ccccc12
dose: 6.25 mg/kg/injection, schedule: Q01DX009 (ip), vehicle: saline
  T/C: 103 % of control
dose: 12.5 mg/kg/injection, schedule: Q01DX009 (ip), vehicle: saline
  T/C: 96 % of control
dose: 12.5 mg/kg/injection, schedule: Q04DX003 (ip), vehicle: saline
  T/C: 101 % of control
dose: 25.0 mg/kg/injection, schedule: Q01DX009 (ip), vehicle: saline
  T/C: 111 % of control
[13]
  T/C: 106 % of control

## CCCCCCCCCCCCOc1cccc(OCCCCCCCCCCCC)c1
dose: 100.0 mg/kg/injection, schedule: Q01DX001 (ip), vehicle: Klucel (hydroxypropylcellulose) (HPC)
  T/C: 92 % of control
dose: 200.0 mg/kg/injection, schedule: Q01DX001 (ip), vehicle: Klucel (hydroxypropylcellulose) (HPC)
  T/C: 87 % of control
dose: 400.0 mg/kg/injection, schedule: Q01DX001 (ip), vehicle: Klucel (hydroxypropylcellulose) (HPC)
  T/C: 87 % of control

## O=C1C=C(N2CCCC2)CC1
dose: 75.0 mg/kg/injection, schedule: Q01DX001 (ip), vehicle: saline
  T/C: 101 % of control
dose: 150.0 mg/kg/injection, schedule: Q01DX001 (ip), vehicle: saline
  T/C: 104 % of control

## O=C(O)c1cccc(Nc2ccccc2C(=O)O)c1
[10]
  T/C: 90 % of control
[11]
  T/C: 92 % of control
